Data: patent publication US20250144107A1, “USE OF A PIKFYVE INHIBITOR IN COMBINATION WITH IMMUNOTHERAPY” (The Regents of the University of Michigan, priority 2023, published 2025)

Legend:
[1] = tested on: KPC1361 (pancreas), B16-F10 (melanoma), 4T1 (breast), and MyC-CaP (prostate); experiment: Flow cytometry of MHC-I surface expression in murine cancer cells; type: cell-based; details: with or without IFN-γ; in a dose-dependent manner
Source text: (§1) FIG. 1E (Left) is line graphs of flow cytometry measuring MHC-I surface expression in KPC1361 cells, stimulated with or without IFN-γ, treated with DMSO, Apilimod, or ESK981; (Right) are bar graphs of quantification of flow cytometry measuring MHC-I surface expression in KPC1361 cells, stimulated with or without IFN-γ, treated with DMSO, Apilimod, or ESK981.
as §1, with “FIG. 2A” for “FIG. 1E”, “in MyC-CaP” for “in KPC1361”, “(Right) is a” for “(Right) are”, “bar graph” for “bar graphs”
Cancer cells or the OVA-expressing cancer cells treated in vitro were harvested from dishes, resuspended in buffer MACS (PBS containing 2% FBS and 2 mM EDTA), and stained with Zombie NIR™ Fixable Viability kit (BioLegend: #423106) and fluorophore-conjugated antibody against MHC-I or PE-conjugated antibody against SIINFEKL bound H-2Kb (BioLegend; catalog #141604), respectively. The cells were next washed twice with 1 ml MACS and fixed with 2% paraformaldehyde in PBS for 15 minutes at room temperature. The cells were then subjected to the flow cytometer (SONY SH800S) for measuring surface expression of MHC-I or SIINFEKL bound H-2Kb, respectively. […]

[2] = tested on: subcutaneous tumors derived from OVA-expressing B16-F10 cells; experiment: Adoptive cell therapy in subcutaneous B16-F10-OVA tumor model; type: in vivo, mice; details: combination with ACT
Source text: FIG. 10A is an experimental timeline of the efficacy against subcutaneous ovalbumin-expressing B16-F10 (B16-F10-OVA) tumors treated with adoptive cell therapy (ACT) in combination with apilimod or ESK981.
FIG. 10B is a series of 6 line graphs showing the growth of subcutaneous ovalbumin-expressing B16-F10 (B16-F10-OVA) tumors treated with adoptive cell therapy (ACT) in combination with apilimod or ESK981.
FIG. 10C is a line graph of the survival of mice with subcutaneous ovalbumin-expressing B16-F10 (B16-F10-OVA) tumors treated with adoptive cell therapy (ACT) in combination with apilimod or ESK981.
All experimental protocols were conducted after approval by the U-M Institutional Animal Care & Use Committee. […] KPC1361 cells were resuspended in PBS, 1:1 (v/v) mixed with Matrigel (BD Biosciences; catalog #: 354248), and orthotopically injected to the pancreases at 250,000 cells in a total volume of 50 μl per injection. B16-F10 cells were resuspended in PBS and injected subcutaneously to both flanks at 400,000 cells per injection. For ACT study, B16-F10-OVA cells were resuspended in PBS and injected subcutaneously to both flanks at 300,000 cells per injection. For lung metastasis experiment, B16-BL6 cells were resuspended in PBS, 1:1 (v/v) mixed with Matrigel and injected subcutaneously to both flanks at 400,000 cells per injection. Fifteen days after tumor cell inoculation, the primary tumors were removed surgically under anesthesia. Thirty-five days after removal of the primary tumors, lung tissues were extracted and fixed, and lung metastasis was quantified. C57BL/6 mice were acquired from The Jackson Laboratory. Measurement of tumor volume began 5-9 days post tumor cell implantation and was performed 2-3 times per week using calipers. Volume measurements of pancreatic tumors were also achieved with calipers, as reported See, e.g., Koikawa, K. et al., Cell 2021; 184(18):4753-4771. In brief, mice were subjected to anesthesia with 2-3% isoflurane, and the abdominal wall then became soft and loose. The mouse was next held with the left hand allowing for the palpation and assessment of the firm pancreatic tumor mass with the right hand. […] Volume (mm^3) of tumor was calculated using (W^2×L)/2, where W stood for minor tumor axis and L for the major. All mice were maintained in a pathogen-free condition, with a 12-hour light/dark cycle.
For ICB treatment in KPC1361 pancreatic tumor-bearing mice, randomization was performed when tumors reached approximately 100 mm^3. For ACT and vaccine experiments, the mice were randomized when tumors reached approximately 35 mm^3. Anti-mouse PD-1 (clone RMP1-14) and its isotype control were purchased from BioXcell, administered intraperitoneally at 250 μg per mouse, biweekly. […]

Row | SMILES | constitutive and induced surface expression of MHC-I [1] | efficacy of the ACT [2] | survival of the animals [2]
1 | CC(C)Cn1c2ccc(Nc3ncccn3)cc2c2c3c(c4c(c21)CCc1nn(C)cc1-4)C(=O)NC3 [ESK981, 13-isobutyl-4-methyl-10-(pyrimidin-2-ylamino)-1,2,4,7,8,13-hexahydro-6H-indazolo[5,4-a]pyrrolo[3,4-c]carbazol-6-one] | upregulated | strikingly enhanced | significantly extending survival
2 | Cc1cccc(/C=N/Nc2cc(N3CCOCC3)nc(OCCc3ccccn3)n2)c1 [apilimod, N-[(E)-(3-methylphenyl)methylideneamino]-6-morpholin-4-yl-2-(2-pyridin-2-ylethoxy)pyrimidin-4-amine] | upregulated | strikingly enhanced | significantly extending survival
